These results are taken from US8969565B2, “Imidazo[1,2-b]pyridazine-based compounds, compositions comprising them, and methods of their use” (Lexicon Pharmaceuticals, Inc., priority 2012, dated 2015).

Usually IC50 stands for the concentration at which inhibition is half-maximal.

The target in experiment [1] is T1, AAK1 (Homo sapiens, UniProt Q2M2I8).
T1 construct: HA; expressed in transfected cells; host or cells: HEK293F
Put plainly: P81 filter plate assay. Conditions: full-length human AAK1, Mu2 substrate. The class given is biochemical.

The target of experiment [2] is T1, AAK1. Kind of experiment: HEK281 cell-based assay (phospho-mu2 Western blot in transfected HEK293F cells). To be noted: 3 hours incubation, read-out: CBA IC50. In a few lines:
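After 3 hours at 37° C. with compound (five 3-fold-spaced concentrations, DMEM+0.5% FBS), transiently transfected HEK293F cells expressing full-length human AAK1 and Flag-tagged mu2 were lysed. mu2 phosphorylation was read by anti-phospho-mu2 immunoblot, normalized against total mu2 by anti-Flag blot.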

T1 sequence (Q2M2I8 1-863 isoform Q2M2I8-2): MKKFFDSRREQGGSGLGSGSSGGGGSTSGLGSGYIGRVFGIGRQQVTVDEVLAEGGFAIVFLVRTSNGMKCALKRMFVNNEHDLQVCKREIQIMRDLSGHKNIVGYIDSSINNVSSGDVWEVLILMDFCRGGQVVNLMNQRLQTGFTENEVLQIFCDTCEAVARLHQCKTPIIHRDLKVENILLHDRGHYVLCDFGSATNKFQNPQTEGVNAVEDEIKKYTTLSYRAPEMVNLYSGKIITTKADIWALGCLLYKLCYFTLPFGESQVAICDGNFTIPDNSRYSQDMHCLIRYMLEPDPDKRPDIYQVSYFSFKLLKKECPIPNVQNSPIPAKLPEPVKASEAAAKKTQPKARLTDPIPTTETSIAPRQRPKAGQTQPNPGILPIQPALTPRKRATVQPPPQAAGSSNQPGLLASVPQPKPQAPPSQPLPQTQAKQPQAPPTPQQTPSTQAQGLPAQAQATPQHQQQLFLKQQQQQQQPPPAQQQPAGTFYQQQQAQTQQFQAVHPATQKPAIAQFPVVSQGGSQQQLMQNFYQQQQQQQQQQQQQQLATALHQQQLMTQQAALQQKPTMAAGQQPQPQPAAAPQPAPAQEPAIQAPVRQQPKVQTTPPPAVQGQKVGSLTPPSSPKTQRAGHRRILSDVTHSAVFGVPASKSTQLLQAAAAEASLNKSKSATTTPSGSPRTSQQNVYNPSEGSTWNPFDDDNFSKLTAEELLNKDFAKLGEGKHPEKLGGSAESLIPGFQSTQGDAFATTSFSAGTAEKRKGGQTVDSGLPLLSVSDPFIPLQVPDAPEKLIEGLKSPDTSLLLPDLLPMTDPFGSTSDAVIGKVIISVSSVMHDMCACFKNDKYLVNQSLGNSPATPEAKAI

As for `Oc1cccc(-c2cnc3ccc(NCCOC4CCCC4)nn23)c1` [3-(6-((2-(cyclopentyloxy)ethyl)amino)imidazo[1,2-b]pyridazin-3-yl)phenol], the IC50 in experiment [1] was at most 10 nM; in experiment [2] it was at most 1000 nM.
The matching figures for `c1cc2c(cc1-c1cnc3ccc(NCCOC4CCCC4)nn13)OCO2` [3-(benzo[d][1,3]dioxol-5-yl)-N-(2-(cyclopentyloxy)ethyl)imidazo[1,2-b]pyridazin-6-amine]: at most 100 nM and at most 1000 nM.
`CC(C)(C)OC(=O)N1CCN(c2ccc3ncc(I)n3n2)CC1` [4-(3-Iodo-imidazo[1,2-b]pyridazin-6-yl)-piperazine-1-carboxylic acid tert-butyl ester]: the concentration for half-maximal inhibition (IC50) was at most 10 nM in experiment [1] and at most 100 nM in experiment [2].
The matching figures for `N#Cc1ccc(-c2cnc3ccc(NCCOC4CCCC4)nn23)s1` [5-(6-((2-(cyclopentyloxy)ethyl)amino)imidazo[1,2-b]pyridazin-3-yl)thiophene-2-carbonitrile]: at most 10 nM and at most 100 nM.
On to `COc1ccccc1-c1cnc2ccc(N3CCN(C(=O)N4CCCCC4)CC3)nn12` [(4-(3-(2-methoxyphenyl)imidazo[1,2-b]pyridazin-6-yl)piperazin-1-yl)(piperidin-1-yl)methanone], for which the IC50 was at most 10 nM in experiment [1] and at most 100 nM in experiment [2].
On to `COc1ccccc1-c1cnc2ccc(N3CCN(C(=O)N4CCCC4)CC3)nn12` [(4-(3-(2-methoxyphenyl)imidazo[1,2-b]pyridazin-6-yl)piperazin-1-yl)(pyrrolidin-1-yl)methanone], for which the IC50 in experiment [1] was at most 10 nM; in experiment [2], at most 100 nM.
The matching figures for `COc1ncccc1-c1cnc2ccc(N3CCN(C(=O)N4CCCCC4)CC3)nn12` [(4-(3-(2-methoxypyridin-3-yl)imidazo[1,2-b]pyridazin-6-yl)piperazin-1-yl)(piperidin-1-yl)methanone]: at most 10 nM and at most 100 nM.
With `COc1ncccc1-c1cnc2ccc(N3CCN(C(=O)N4CCCC4)CC3)nn12` [(4-(3-(2-methoxypyridin-3-yl)imidazo[1,2-b]pyridazin-6-yl)piperazin-1-yl)(pyrrolidin-1-yl)methanone], the IC50 was at most 10 nM in experiment [1] and at most 100 nM in experiment [2].
The matching figures for `COc1cnccc1-c1cnc2ccc(N3CCN(C(=O)N4CCCC4)CC3)nn12` [(4-(3-(3-methoxypyridin-4-yl)imidazo[1,2-b]pyridazin-6-yl)piperazin-1-yl)(pyrrolidin-1-yl)methanone]: at most 10 nM and at most 100 nM.
The like results for `O=C(N1CCCCC1)N1CCN(c2ccc3ncc(-c4ccccc4)n3n2)CC1` [(4-(3-phenylimidazo[1,2-b]pyridazin-6-yl)piperazin-1-yl)(piperidin-1-yl)methanone] were, in that order, at most 10 nM and at most 100 nM.
In the case of `O=C(N1CCCC1)N1CCN(c2ccc3ncc(-c4ccccc4)n3n2)CC1` [(4-(3-phenylimidazo[1,2-b]pyridazin-6-yl)piperazin-1-yl)(pyrrolidin-1-yl)methanone], the IC50 in experiment [1] is at most 10 nM; in experiment [2] it was at most 1000 nM.
The matching figures for `Cc1nc(C)c(-c2cnc3ccc(NC[C@@H]4CCCN4C(=O)CC(C)C)nn23)s1` [(S)-1-(2-(((3-(2,4-dimethylthiazol-5-yl)imidazo[1,2-b]pyridazin-6-yl)amino)methyl)pyrrolidin-1-yl)-3-methylbutan-1-one]: at most 10 nM and at most 10 nM.
The matching figures for `CC(C)CC(=O)N1CCC[C@H]1CNc1ccc2ncc(-c3cccc(Cl)c3)n2n1` [(S)-1-(2-(((3-(3-chlorophenyl)imidazo[1,2-b]pyridazin-6-yl)amino)methyl)pyrrolidin-1-yl)-3-methylbutan-1-one]: at most 10 nM and at most 10 nM.
The like results for `CC(C)CC(=O)N1CCC[C@H]1CNc1ccc2ncc(-c3cccc(F)c3)n2n1` [(S)-1-(2-(((3-(3-fluorophenyl)imidazo[1,2-b]pyridazin-6-yl)amino)methyl)pyrrolidin-1-yl)-3-methylbutan-1-one] were, in that order, at most 10 nM and at most 10 nM.
As for `COc1cccc(-c2cnc3ccc(NC[C@@H]4CCCN4C(=O)CC(C)C)nn23)c1` [(S)-1-(2-(((3-(3-methoxyphenyl)imidazo[1,2-b]pyridazin-6-yl)amino)methyl)pyrrolidin-1-yl)-3-methylbutan-1-one], the IC50 is at most 10 nM in experiment [1] and at most 100 nM in experiment [2].
The matching figures for `CC(C)(C)C(=O)N1CCC[C@H]1CNc1ccc2ncc(-c3ccc(CN)cc3)n2n1` [(S)-1-(2-(((3-(4-(aminomethyl)phenyl)imidazo[1,2-b]pyridazin-6-yl)amino)methyl)pyrrolidin-1-yl)-2,2-dimethylpropan-1-one]: at most 10 nM and at most 100 nM.
In the case of `CC(C)(C)CC(=O)N1CCC[C@H]1CNc1ccc2ncc(-c3ccc(CN)cc3)n2n1` [(S)-1-(2-(((3-(4-(aminomethyl)phenyl)imidazo[1,2-b]pyridazin-6-yl)amino)methyl)pyrrolidin-1-yl)-3,3-dimethylbutan-1-one], the IC50 in experiment [1] was at most 10 nM; in experiment [2], at most 100 nM.
Turning to `CCCC(=O)N1CCC[C@H]1CNc1ccc2ncc(-c3ccc(CN)cc3)n2n1` [(S)-1-(2-(((3-(4-(aminomethyl)phenyl)imidazo[1,2-b]pyridazin-6-yl)amino)methyl)pyrrolidin-1-yl)butan-1-one], the IC50 in experiment [1] and in experiment [2] was at most 10 nM each time.
Turning to `CC(C)CC(=O)N1CCC[C@H]1CNc1ccc2ncc(-c3ccc(F)cc3)n2n1` [(S)-1-(2-(((3-(4-fluorophenyl)imidazo[1,2-b]pyridazin-6-yl)amino)methyl)pyrrolidin-1-yl)-3-methylbutan-1-one], the results for the IC50 in experiment [1] and in experiment [2] were at most 10 nM and at most 100 nM, respectively.
The like results for `COc1ccc(-c2cnc3ccc(NC[C@@H]4CCCN4C(=O)CC(C)C)nn23)cc1` [(S)-1-(2-(((3-(4-methoxyphenyl)imidazo[1,2-b]pyridazin-6-yl)amino)methyl)pyrrolidin-1-yl)-3-methylbutan-1-one] were, in that order, at most 10 nM and at most 1000 nM.
Regarding `COc1ncccc1-c1cnc2ccc(NC[C@@H]3CCC(=O)N3CCC(C)(C)C)nn12` [(S)-1-(3,3-dimethylbutyl)-5-(((3-(2-methoxypyridin-3-yl)imidazo[1,2-b]pyridazin-6-yl)amino)methyl)pyrrolidin-2-one], the IC50 in experiment [1] and in experiment [2] was at most 10 nM each time.
On to `CC(C)(C)CCN1C(=O)CC[C@H]1CNc1ccc2ncc(-c3ccccc3)n2n1` [(S)-1-(3,3-dimethylbutyl)-5-(((3-phenylimidazo[1,2-b]pyridazin-6-yl)amino)methyl)pyrrolidin-2-one], for which the results for the IC50 in experiment [1] and in experiment [2] were at most 10 nM and at most 1000 nM, respectively.
Consider `CC(=O)c1cnc2ccc(N3CCN(C(=O)[C@@H](N)C(C)C)CC3)nn12` [(S)-1-(4-(3-acetylimidazo[1,2-b]pyridazin-6-yl)piperazin-1-yl)-2-amino-3-methylbutan-1-one], for which the figures for the IC50 in experiment [1] and in experiment [2] were at most 10 nM and at most 100 nM, respectively.
The matching figures for `CC1(OC(=O)N2CCC[C@H]2CNc2ccc3ncc(Br)n3n2)CCCC1` [(S)-1-methylcyclopentyl 2-(((3-bromoimidazo[1,2-b]pyridazin-6-yl)amino)methyl)pyrrolidine-1-carboxylate]: at most 10 nM and at most 1000 nM.
As for `COc1ncccc1-c1cnc2ccc(N3CC[C@H](N(C)C(=O)OCC(F)(F)F)C3)nn12` [(S)-2,2,2-trifluoroethyl (1-(3-(2-methoxypyridin-3-yl)imidazo[1,2-b]pyridazin-6-yl)pyrrolidin-3-yl)(methyl)carbamate], the IC50 is at most 10 nM in experiment [1] and at most 100 nM in experiment [2].
In the case of `CC(C)(C)NC(=O)N1CCC[C@H]1CNc1ccc2ncc(Br)n2n1` [(S)-2-(((3-bromoimidazo[1,2-b]pyridazin-6-yl)amino)methyl)-N-(tert-butyl)pyrrolidine-1-carboxamide], the IC50 in experiment [1] is at most 10 nM; in experiment [2], at most 100 nM.
In the case of `COc1ncccc1-c1cnc2ccc(N3CCN(C(=O)[C@@H](N)CC(C)C)CC3)nn12` [(S)-2-amino-1-(4-(3-(2-methoxypyridin-3-yl)imidazo[1,2-b]pyridazin-6-yl)piperazin-1-yl)-4-methylpentan-1-one], the 50% inhibitory concentration (IC50) in experiment [1] and in experiment [2] was at most 10 nM each time.
For `O=C(CC(F)(F)F)N1CCC[C@H]1CNc1ccc2ncc(-c3ccccc3)n2n1` [(S)-3,3,3-trifluoro-1-(2-(((3-phenylimidazo[1,2-b]pyridazin-6-yl)amino)methyl)pyrrolidin-1-yl)propan-1-one], the IC50 in experiment [1] and in experiment [2] was at most 10 nM throughout.
For the molecule `CC(C)(C)CC(=O)N1CCC[C@H]1CNc1ccc2ncc(-c3ccncc3)n2n1` [(S)-3,3-dimethyl-1-(2-(((3-(pyridin-4-yl)imidazo[1,2-b]pyridazin-6-yl)amino)methyl)pyrrolidin-1-yl)butan-1-one], the IC50 in experiment [1] is at most 10 nM; in experiment [2], at most 100 nM.
As for `CC(C)CC(=O)N1CCC[C@H]1CNc1ccc2ncc(-c3cccc(C#N)c3)n2n1` [(S)-3-(6-(((1-(3-methylbutanoyl)pyrrolidin-2-yl)methyl)amino)imidazo[1,2-b]pyridazin-3-yl)benzonitrile], the IC50 is at most 10 nM in experiment [1] and at most 100 nM in experiment [2].
Take `Cc1cc(-c2cnc3ccc(NC[C@@H]4CCCN4C(=O)CC(C)C)nn23)ccn1` [(S)-3-methyl-1-(2-(((3-(2-methylpyridin-4-yl)imidazo[1,2-b]pyridazin-6-yl)amino)methyl)pyrrolidin-1-yl)butan-1-one]: the figures for the IC50 in experiment [1] and in experiment [2] were at most 10 nM and at most 100 nM, respectively.
The like results for `Cc1cccc(-c2cnc3ccc(NC[C@@H]4CCCN4C(=O)CC(C)C)nn23)c1` [(S)-3-methyl-1-(2-(((3-(m-tolyl)imidazo[1,2-b]pyridazin-6-yl)amino)methyl)pyrrolidin-1-yl)butan-1-one] were, in that order, at most 10 nM and at most 1000 nM.
